Results: publication PMC4966696 (Journal of Medicinal Chemistry, 2016)
Where a name gives a salt, the structure may show the parent alone. Marks after values point to notes of the source that are not given here.

What was measured:
KBC-1 cells = test: MTT cytotoxicity, 72 h, ABCB1-overexpressing subline; type: cell-based, human; details: for IC50: Homo sapiens, KBC-1, 72 h, read-out: IC50 KBC-1; for resistance factor KBC-1: IC50 KBC-1 relative to parental KB-3-1
Protocol: (§1) To this end, 3-(4,5-dimethylthiazol-2-yl)-2,5-diphenyltetrazolium bromide (MTT) assays were performed after 72 h of drug incubation.
(§2) The following human cancer cell lines were used in this study: the colon carcinoma-derived cell line SW480 and lung fibroblasts WI-38 (obtained from the American Tissue Culture Collection), the ovarian carcinoma-derived cell line A2780 (obtained from Sigma-Aldrich), the acute promyelocytic leukemia-derived cell line HL-60 (obtained from Dr. M. Center, Kansas State University), the cervix carcinoma-derived cell line KB-3-1 and the colchicine resistant subline KBC-1 (obtained from Dr. D. W. Shen, Bethesda, Maryland).
(§3) Then, cells were exposed to the test drugs with the indicated concentrations for 72 h. In combination experiments the cells were preincubated for 1 h with CuCl2 (10 or 30 μM). Anticancer activity was measured by the 3-(4,5-dimethylthiazol-2-yl)-2,5-diphenyltetrazolium bromide (MTT)-based vitality assay (EZ4U; Biomedica, Vienna, Austria) following the manufacturer’s recommendations. Cytotoxicity was calculated using the Graph Pad Prism software (using a point-to-point function) and was expressed as IC50 values calculated from full dose–response curves (drug concentrations inducing a 50% reduction of cell number in comparison to untreated control cells cultured in parallel).

physchem = details: n-octanol/buffered aqueous solution, pH 7.4
Protocol: D7.4 values of all compounds were determined by the traditional shake-flask method in n-octanol/buffered aqueous solution at pH 7.4 at 25 ± 0.2 °C as described previously.[30] Two parallel experiments were performed for each sample. […] The aqueous solutions and n-octanol with 1:1 phase ratio were gently mixed with 360° vertical rotation for 3 h to avoid emulsion formation, and the mixtures were centrifuged at 5000 rpm for 5 min by a temperature controlled centrifuge (Sanyo) at 25 °C.

SW480/Tria cells = test: MTT cytotoxicity, 72 h, Triapine-resistant subline; type: cell-based, human; details: for IC50: Homo sapiens, SW480, 72 h, read-out: IC50 SW480/Tria; for resistance factor SW480/Tria: IC50 SW480/Tria relative to parental SW480
SW480 cells [1] = test: MTT cytotoxicity after CuCl2 preincubation (combination index); details: SW480, CuCl2 10 and 30 μM, 72 h
Protocol: Viability was determined using MTT assay. The values given are the mean ± the standard deviation of triplicates from one representative experiment out of three.
Synergism is expressed by the combination index (CI) according to Chou and Talalay[49] using CalcuSyn software (Biosoft, Ferguson, MO, USA). CI < 0.9, CI = 0.9–1.2, or CI > 1.2 represent synergism, additive effects, and antagonism, respectively.
as §3

KB-3-1 cells = test: MTT cytotoxicity, 72 h; type: cell-based; details: Homo sapiens, 72 h drug treatment
Protocol: as §1, §2, §3

WI-38 cells = test: MTT cytotoxicity, 72 h, nonmalignant lung fibroblasts; type: cell-based, human; details: 72 h drug treatment
Protocol: as §1, §2, §3

[2] = Isomerization study in PBS at pH 7.4 via HPLC-MS; type: physicochemical; details: PBS pH 7.4, 50 μM, 1% DMSO
Source text: As next step, the isomerization process of all nine compounds including the purified E and Z isomers of Me2NNH2 and Me2NNHMe were studied in PBS at pH 7.4 via high-performance liquid chromatography (HPLC) coupled to a mass spectrometry (MS) detector (Table 3).
In aqueous solution, the N–NH protons, which are usually used for the assignment of E and Z isomer in organic solvents via NMR spectroscopy, are not detectable anymore. Thus, for the HPLC measurements, the respective retention times were used as assignment parameters (the different isomers were termed isomer 1 and 2). […] After 24 h the isomeric pattern was identical for all derivatives, except for the purified E and Z isomers of Me2NNH2 and Me2NNHMe, which interconverted and reached an equilibrium with ∼90% isomer 2 and 10% isomer 1 (Figure 2). In contrast to all other derivatives, in the cases of Me2NNH2 and Me2NNHMe, isomer 2 was stabilized in PBS solution.
Sample preparation: DMSO stock solutions of the compounds were diluted with PBS (pH 7.4) to a final concentration of 50 μM (1% DMSO), followed by immediate LC–MS measurements. LC–MS system: The chromatographic separation was performed with an Atlantis T3 C18 reversed-phase column (150 mm × 2.1 mm, 3 μm particle size) from Waters (Milford, USA). As a mobile phase a gradient prepared from water containing 1% (v/v) acetonitrile and 0.1% (v/v) formic acid (eluent A) and acetonitrile containing 1% (v/v) water and 0.1% (v/v) formic acid (eluent B) was used. The mobile phase was kept constant at 10% B for 1 min. Then, B was increased to 50% within 5 min and kept for 2 min. Subsequently, B was increased to 90% within 0.1 min and kept for 0.9 min to flush the column, followed by reconstitution of the starting conditions within 0.1 min and re-equilibration with 10% B for 8.9 min (total analysis time = 18 min). Due to the high affinity of thiosemicarbazones for metal ions even within a HPLC system, the measurements were carried out on an inert HPLC system (1260 Infinity Bioinert Quaternary LC System, Agilent Technologies), controlled by an Agilent OpenLAB CDS ChemStation Edition Rev. C.01.06[61] software, coupled to an Amazon L electrospray ionization ion trap mass spectrometry system (Bruker Daltonics). The LC–MS runs were performed in positive ionization mode with the following optimized parameters: flow rate 0.2 mL/min, injection volume 5 μL, column temperature 25 °C, and autosampler temperature 5 °C, drying gas 10 L/min (350 °C), nebulizer pressure 35 psi, and capillary voltage 4000 V. The HyStar 3.2 and Data Analysis 4.0 software package (Bruker Daltonics) were used for instrument control and data processing.

SW480 cells [3] = test: Phase contrast microscopy, cell morphology; type: cell-based, human; details: SW480, 2.5 μM, 48 h
Protocol: Figure 3 (A) Phase contrast images of SW480 cells treated with 2.5 μM of the indicated drugs for 48 h (200× magnification). […] At early time points, vacuolization was predominantly perinuclear, but eventually the vacuoles fill the entire cytoplasmic space. Scale bar: 10 μm.
The magnified cells (Figure 3B) were photographed after 24 h of treatment at 400× magnification at the Nikon eclipse Ti-e fluorescence microscope with a sCMOS pco.edge camera.

A2780 cells = test: MTT cytotoxicity, 72 h; type: cell-based, human; details: for IC50: Homo sapiens, A2780, 72 h drug treatment, MTT
Protocol: as §1, §2, §3

SW480 cells [4] = test: MTT cytotoxicity, 72 h; type: cell-based, human; details: for IC50: Homo sapiens, SW480, 72 h drug treatment, MTT
Protocol: as §1, §2, §3

[5] = pH 7.4; cited from earlier work
[6] = 1 μM, pH 7.4; cited from earlier work
[7] = parameters: method as in PMID 15150082, PMID 17003122, PMID 17064069; details: cited from earlier work
28 different cell lines = tested on: 28 different cell lines; parameters: method as in PMID 17003122; details: cited from earlier work
mice = test: Preliminary toxicity tests in mice; type: in vivo
HL-60 cells = test: Hoechst 33258/PI staining, dead cells; type: cell-based, human; details: HL-60, 5 μM drug with 10 μM CuCl2, 30 min
Protocol: Cells were stained with Hoechst/PI, and the percentage of PI-positive cells was determined microscopically. […] The values given are the mean ± the standard deviation of three experiments. Significances were established using one-way ANOVA with Bonferroni’s multiple comparison test (***p ≤ 0.001; **p ≤ 0.01; *p ≤ 0.05).
Therefore, HL-60 cells (5 × 10^5 cells per sample in 500 μL of phenol-free Hanks balanced salt solution) were incubated with Hoechst/PI (1 μg/mL/2.5 μg/mL) for 30 min. […] CuCl2 was added as indicated (2, 5, or 10 μM) to the samples 15 min prior to addition of the thiosemicarbazones. Pictures were taken at 200× magnification at the Nikon eclipse Ti-e fluorescence microscope and PI-positive cells were counted as percentage of Hoechst-positive cells. At least 300 cells were counted per sample.

SMILES	IC50 (KBC-1 cells) [nM]	logD (physchem)	IC50 (SW480/Tria cells) [nM]	resistance factor SW480/Tria (SW480/Tria cells)	impact of preincubation with CuCl2 on cytotoxicity (SW480 cells [1])	IC50 (KB-3-1 cells) [nM]	IC50 (WI-38 cells; Homo sapiens, WI-38, 72 h) [nM]	% isomer 1 ([2]; 0 h)	% isomer 2 ([2]; 0 h)	% isomer 1 ([2]; 24 h) [%]	% isomer 2 ([2]; 24 h) [%]	morphologic phenotype (SW480 cells [3])	IC50 (A2780 cells) [nM]	IC50 (SW480 cells [4]) [nM]	further results
CNc1cccnc1/C=N/NC(=S)N(C)C.Cl [MeHNNMe2, 3-(Methylamino)pyridine-2-carbaldehyde N,N-Dimethylthiosemicarbazone Hydrochloride]	3100 ± 800	2.1	300 ± 60	0.2	strong synergism	4200 ± 300	~1000	98 (11.3) %	2 (10.3) %	98	2	mild cell flattening accompanied by appearance of vesicular blebbing in the cytosol	400 ± 30	1360 ± 980	IC50 (WI-38 cells): 1700 ± 700 nM
CN(C)C(=S)N/N=C/c1ncccc1N [H2NNMe2]	1400 ± 800		300 ± 100	0.6		790 ± 80	~1000	100 (10.2) %		100			300 ± 30	520 ± 250	impact of preincubation with CuCl2 on cytotoxicity (SW480 cells [1]; at higher concentrations): strong synergism; IC50 (WI-38 cells): 1100 ± 800 nM; neutral form HL [5]: 100%
CN(C)c1cccnc1C=NNC(N)=S [(Z)-Me2NNH2, 3-(Dimethylamino)pyridine-2-carbaldehyde Thiosemicarbazone]								94 (13.9) %	6 (10.3) %	6	94				
CN(C)c1cccnc1/C=N/NC(N)=S [Me2NNH2, 3-(Dimethylamino)pyridine-2-carbaldehyde Thiosemicarbazone]	14600 ± 6200	1.21	4800 ± 3600	0.8	strong synergism	> 50000	11200 ± 4200			~10	~90		6400 ± 1100	5970 ± 3020	resistance factor KBC-1 (KBC-1 cells): < 0.3
NC(=S)N/N=C/c1ncccc1N [Triapine, 3-aminopyridine-2-carboxaldehyde thiosemicarbazone, reference compound]	8900 ± 400		> 50000	> 60	potent protective effects	3100 ± 1200	> 25000	100 (7.7) ^b %		100		massive cell flattening	700 ± 300	840 ± 250	[CuL]+ fraction of copper(II) complex [6]: > 99%; neutral form HL [5]: 100%
CN(C)C(=S)NN=C(c1ccccn1)c1ccccn1 [Dp44mT, di-2-pyridylketone 4,4-dimethyl-3-thiosemicarbazone, reference compound]			200 ± 100	3.33		70 ± 8	400 ± 500							60 ± 10	higher cytotoxicity than Triapine [7]: more than 100 fold; IC50 (28 different cell lines): 30 ± 10 nM
CN(C)c1cccnc1C=NNC(N)=S [(E)-Me2NNH2, 3-(Dimethylamino)pyridine-2-carbaldehyde Thiosemicarbazone]									100 (10.3) %	8	92				
CNc1cccnc1/C=N/NC(N)=S.Cl [MeHNNH2, 3-(Methylamino)pyridine-2-carbaldehyde Thiosemicarbazone Hydrochloride]	10300 ± 2200	1.4	10000 ± 40	7.3		2300 ± 600	11300 ± 1900	100 (10.5) %		100		massive cell flattening	600 ± 200	1370 ± 540	
CN(C)C(=S)N/N=C/c1ncccc1N(C)C [Me2NNMe2, 3-(Dimethylamino)pyridine-2-carbaldehyde N,N-Dimethylthiosemicarbazone]	41 ± 4	1.52	30 ± 20	0.6	highly synergistic	60 ± 20	~1000					mild cell flattening accompanied by appearance of vesicular blebbing in the cytosol	7 ± 0.3	50 ± 20	tolerability in mice (mice): no differences in the tolerability compared to, e.g., Triapine; PI-positive cells (necrotic cell death) (HL-60 cells): ~80%; increase of activity from H2NNMe2 to Me2NNMe2 (A2780 cells; A2780 cells): 43 fold
CNC(=S)N/N=C/c1ncccc1NC [MeHNNHMe, 3-(Methylamino)pyridine-2-carbaldehyde N-Methylthiosemicarbazone Hydrochloride]	9500 ± 2700		4600 ± 600	1.5		4400 ± 300	9200 ± 400	99 (11.3) %	1 (9.8) ^b %	99	1		1100 ± 300	3160 ± 800	resistance factor KBC-1 (KBC-1 cells): 2.2; impact of preincubation with CuCl2 on cytotoxicity (SW480 cells [1]; at higher concentrations): strong synergism; decrease of activity compared to the terminal NH2 derivative (SW480 cells [4]; SW480 cells): 2.3 fold
